Results from patent publication US6737383B1, “Herbicidal oxadiazolidines” (priority 1999, dated 2004).

Columns and labels:
duck salad = test: Test B flood test duck salad; format: in vivo, Heteranthera limosa
Summary of the method: (§1)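 Read-out is a visual response score from 0 (no effect) to 10 (complete control), assigned by comparison with untreated controls. Treatment was applied at the 2-leaf stage, and plants stayed in the greenhouse for twelve to sixteen days before scoring.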

rice = test: Test B flood test rice; format: in vivo, Oryza sativa
Summary of the method: as §1

rape = test: Test B pre/postemergence rape; format: in vivo, Brassica napus
Summary of the method: (§2)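 Response is a visual 0-to-10 score relative to untreated plants, where 0 means no effect and 10 means complete control, taken twelve to sixteen days after application. Treatments went onto soil at planting and onto foliage of 1- to 4-leaf plants, using a surfactant-containing non-phytotoxic solvent.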

velvetleaf = test: Test B pre/postemergence velvetleaf; format: in vivo, Abutilon theophrasti
Summary of the method: as §2

corn = test: Test B pre/postemergence corn; format: in vivo, Zea mays
Summary of the method: as §2

bamyardgrass = test: Test B flood test barnyardgrass; format: in vivo, Echinochloa crus-galli
Summary of the method: as §1

purple nutsedge = test: Test B pre/postemergence purple nutsedge; format: in vivo, Cyperus rotundus
Summary of the method: as §2

soybean = test: Test B pre/postemergence soybean; format: in vivo, Glycine max
Summary of the method: as §2

surinam grass = test: Test B pre/postemergence surinam grass; format: in vivo, Brachiaria decumbens
Summary of the method: as §2

crabgrass = test: Test B pre/postemergence crabgrass; format: in vivo, Digitaria sanguinalis
Summary of the method: as §2

blackgrass = test: Test B pre/postemergence blackgrass; format: in vivo, Alopecurus myosuroides
Summary of the method: as §2

cocklebur = test: Test B pre/postemergence cocklebur; format: in vivo, Xanthium strumarium
Summary of the method: as §2

smallflower flatsedge = test: Test B flood test smallflower flatsedge; format: in vivo, Cyperus difformis
Summary of the method: as §1

wild oat = test: Test B pre/postemergence wild oat; format: in vivo, Avena fatua
Summary of the method: as §2

sugar beet = test: Test B pre/postemergence sugar beet; format: in vivo, Beta vulgaris
Summary of the method: as §2

wheat = test: Test B pre/postemergence wheat; format: in vivo, Triticum aestivum
Summary of the method: as §2

bedstraw = test: Test B pre/postemergence bedstraw; format: in vivo, Galium aparine
Summary of the method: as §2

morningglory = test: Test B pre/postemergence morningglory; format: in vivo, Ipomoea hederacea
Summary of the method: as §2

pigweed = test: Test B pre/postemergence pigweed; format: in vivo, Amaranthus retroflexus
Summary of the method: as §2

giant foxtail = test: Test B pre/postemergence giant foxtail; format: in vivo, Setaria faberii
Summary of the method: as §2

[1] = Rate 62 g/ha, headed Pre-emergence (flood test species), scale 0 to 10 (0 no effect, 10 complete control)
[2] = Rate 125 g/ha, Pre-emergence, flood test species, scale 0 to 10 where 0 is no effect and 10 is complete control
[3] = Rate 250 g/ha, Pre-emergence, flood-test species, scale 0 to 10, 0 is no effect, 10 is complete control
[4] = Rate 500 g/ha, Pre-emergence, flood test species, scale 0 to 10 (0 no effect, 10 complete control)
[5] = Preemergence, Rate 62 g/ha, scale of 0 to 10 where 0 is no effect and 10 is complete control
[6] = Preemergence, Rate 500 g/ha, scale of 0 to 10 where 0 is no effect and 10 is complete control
[7] = Rate 125 g/ha, Preemergence, scale of 0 to 10 where 0 is no effect and 10 is complete control
[8] = Preemergence, Rate 250 g/ha, scale of 0 to 10 where 0 is no effect and 10 is complete control
[9] = Rate 500 g/ha, Postemergence, scale 0 to 10, 0 no effect, 10 complete control
[10] = Rate 62 g/ha, Postemergence, scale of 0 to 10 where 0 is no effect and 10 is complete control
[11] = Rate 125 g/ha, Postemergence, scale 0 to 10

Cc1noc(C)c1Cn1c(=O)on(C(=O)N(c2ccc(F)cc2)C(C)C)c1=O [Compound 259]
Ducksalad plant response rating (duck salad; [1]): 0
Ducksalad plant response rating (duck salad; [2]): 0
Ducksalad plant response rating (duck salad; [3]): 0
Ducksalad plant response rating (duck salad; [4]): 0
Rice plant response rating (rice; [1]): 0
Rice plant response rating (rice; [2]): 0
Rice plant response rating (rice; [3]): 0
Rice plant response rating (rice; [4]): 0
Rape plant response rating (rape; [5]): 0
Plant response rating, Rape (rape; [6]): 9
Rape plant response rating (rape; [7]): 0
Plant response rating (0 to 10; 0 is no effect, 10 is complete control), Rape (rape; Rate 250 g/ha, Postemergence): 0
Velvetleaf plant response rating (velvetleaf; [5]): 2
Velvetleaf plant response rating (velvetleaf; [8]): 4
Plant response rating, Velvetleaf (velvetleaf; [6]): 5
Velvetleaf plant response rating (velvetleaf; [7]): 2
Velvetleaf plant response rating (velvetleaf; [9]): 1
Corn plant response rating (corn; [5]): 0
Corn plant response rating (corn; [8]): 3
Plant response rating, Corn (corn; [6]): 3
Corn plant response rating (corn; [10]): 0
Corn plant response rating (corn; [11]): 0
Corn plant response rating (corn; [7]): 0
Plant response rating (0 to 10; 0 is no effect, 10 is complete control), Corn (corn; Rate 250 g/ha, Postemergence): 0
Corn plant response rating (corn; [9]): 0
Barnyardgrass plant response rating (bamyardgrass; [1]): 0
Barnyardgrass plant response rating (bamyardgrass; [2]): 0
Barnyardgrass plant response rating (bamyardgrass; [3]): 0
Barnyardgrass plant response rating (bamyardgrass; [4]): 0
Nutsedge plant response rating (purple nutsedge; [5]): 0
Nutsedge plant response rating (purple nutsedge; [8]): 0
Plant response rating, Nutsedge (purple nutsedge; [6]): 0
Nutsedge plant response rating (purple nutsedge; [7]): 0
Plant response rating (0 to 10; 0 is no effect, 10 is complete control), Nutsedge (purple nutsedge; Rate 250 g/ha, Postemergence): 0
Nutsedge plant response rating (purple nutsedge; [9]): 0
Soybean plant response rating (soybean; [5]): 0
Soybean plant response rating (soybean; [8]): 0
Plant response rating, Soybean (soybean; [6]): 0
Soybean plant response rating (soybean; [7]): 0
Soybean plant response rating (soybean; [9]): 6
B. signalgrass plant response rating (surinam grass; [5]): 2
B. signalgrass plant response rating (surinam grass; [8]): 8
Plant response rating, B. signalgrass (surinam grass; [6]): 9
B. signalgrass plant response rating (surinam grass; [10]): 0
B. signalgrass plant response rating (surinam grass; Rate 125 g/ha, Postemergence, scale 0 (no effect) to 10 (complete control)): 0
B. signalgrass plant response rating (surinam grass; [7]): 5
Plant response rating (0 to 10; 0 is no effect, 10 is complete control), B. signalgrass (surinam grass; Rate 250 g/ha, Postemergence): 0
B. signalgrass plant response rating (surinam grass; [9]): 0
Crabgrass plant response rating (crabgrass; [5]): 4
Plant response rating, Crabgrass (crabgrass; [6]): 7
Crabgrass plant response rating (crabgrass; [7]): 4
Plant response rating (0 to 10; 0 is no effect, 10 is complete control), Crabgrass (crabgrass; Rate 250 g/ha, Postemergence): 0
Crabgrass plant response rating (crabgrass; [9]): 0
Blackgrass plant response rating (blackgrass; [5]): 2
Blackgrass plant response rating (blackgrass; [8]): 10
Plant response rating, Blackgrass (blackgrass; [6]): 10
Blackgrass plant response rating (blackgrass; [10]): 0
Blackgrass plant response rating (blackgrass; [11]): 0
Blackgrass plant response rating (blackgrass; [7]): 10
Plant response rating (0 to 10; 0 is no effect, 10 is complete control), Blackgrass (blackgrass; Rate 250 g/ha, Postemergence): 0
Blackgrass plant response rating (blackgrass; [9]): 0
Cocklebur plant response rating (cocklebur; [5]): 0
Cocklebur plant response rating (cocklebur; [8]): 0
Plant response rating, Cocklebur (cocklebur; [6]): 0
Cocklebur plant response rating (cocklebur; [10]): 0
Cocklebur plant response rating (cocklebur; [11]): 2
Cocklebur plant response rating (cocklebur; [7]): 0
Plant response rating (0 to 10; 0 is no effect, 10 is complete control), Cocklebur (cocklebur; Rate 250 g/ha, Postemergence): 2
Cocklebur plant response rating (cocklebur; [9]): 3
S. Flatsedge plant response rating (smallflower flatsedge; [1]): 0
S. Flatsedge plant response rating (smallflower flatsedge; [2]): 0
S. Flatsedge plant response rating (smallflower flatsedge; [3]): 0
S. Flatsedge plant response rating (smallflower flatsedge; [4]): 0
Wild oats plant response rating (wild oat; [5]): 2
Wild oats plant response rating (wild oat; [8]): 4
Plant response rating, Wild oats (wild oat; [6]): 4
Wild oats plant response rating (wild oat; [7]): 2
Wild oats plant response rating (wild oat; [9]): 0
Sugarbeets plant response rating (sugar beet; [5]): 0
Sugarbeets plant response rating (sugar beet; [8]): 0
Plant response rating, Sugarbeets (sugar beet; [6]): 0
Sugarbeets plant response rating (sugar beet; [7]): 0
Sugarbeets plant response rating (sugar beet; [9]): 3
Wheat plant response rating (wheat; [5]): 0
Wheat plant response rating (wheat; [8]): 0
Plant response rating, Wheat (wheat; [6]): 0
Wheat plant response rating (wheat; [7]): 0
Wheat plant response rating (wheat; [9]): 3
Bedstraw plant response rating (bedstraw; [5]): 7
Bedstraw plant response rating (bedstraw; [8]): 10
Plant response rating, Bedstraw (bedstraw; [6]): 10
Bedstraw plant response rating (bedstraw; [10]): 0
Bedstraw plant response rating (bedstraw; [11]): 0
Bedstraw plant response rating (bedstraw; [7]): 10
Morningglory plant response rating (morningglory; [5]): 0
Morningglory plant response rating (morningglory; [8]): 0
Plant response rating, Morningglory (morningglory; [6]): 0
Morningglory plant response rating (morningglory; [7]): 0
Plant response rating (0 to 10; 0 is no effect, 10 is complete control), Morningglory (morningglory; Rate 250 g/ha, Postemergence): 7
Morningglory plant response rating (morningglory; [9]): 8
Redroot pigweed plant response rating (pigweed; [5]): 0
Redroot pigweed plant response rating (pigweed; [8]): 2
Plant response rating, Redroot pigweed (pigweed; [6]): 8
Redroot pigweed plant response rating (pigweed; [7]): 0
Plant response rating (0 to 10; 0 is no effect, 10 is complete control), Redroot pigweed (pigweed; Rate 250 g/ha, Postemergence): 6
Redroot pigweed plant response rating (pigweed; [9]): 7
Giant foxtail plant response rating (giant foxtail; [5]): 9
Giant foxtail plant response rating (giant foxtail; [8]): 9
Plant response rating, Giant foxtail (giant foxtail; [6]): 10
Giant foxtail plant response rating (giant foxtail; [7]): 9
Plant response rating (0 to 10; 0 is no effect, 10 is complete control), Giant foxtail (giant foxtail; Rate 250 g/ha, Postemergence): 0
Giant foxtail plant response rating (giant foxtail; [9]): 0
